Measurements taken from paper PMC12583498, “Distinct filament morphology and membrane tethering features of the dual FtsZ paralogs in Odinarchaeota” (The EMBO journal, 2025).
One block for each compound: values may come before it.

Legend:
OdinFtsZ1 [1] = biological target: T1, OdinFtsZ1 (Candidatus Odinarchaeum yellowstonii, UniProt A0AAF0ID74); assay: cryo-EM structure of filament; type: binding; conditions: […] GMPCPP, […] MgCl2, pH […], on ice; nucleotide pocket at subunit interface; map resolution […] A
T1 construct: full length (363 residues by primer name), synthetic gene, 6His-bdSUMO tag cleaved by Ulp protease, E. coli BL21(DE3); residues 34-332 modelled in cryo-EM
T1 sequence (A0AAF0ID74 1-360): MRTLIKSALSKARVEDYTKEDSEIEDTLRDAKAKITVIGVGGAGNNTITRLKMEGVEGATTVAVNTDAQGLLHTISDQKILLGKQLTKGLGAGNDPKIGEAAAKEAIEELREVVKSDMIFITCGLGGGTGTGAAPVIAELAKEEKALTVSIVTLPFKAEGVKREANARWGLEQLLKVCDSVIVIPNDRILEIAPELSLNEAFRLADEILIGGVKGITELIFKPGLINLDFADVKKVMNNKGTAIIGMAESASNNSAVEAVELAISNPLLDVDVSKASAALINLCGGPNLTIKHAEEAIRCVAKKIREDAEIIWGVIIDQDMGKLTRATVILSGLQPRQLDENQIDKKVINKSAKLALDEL

OdinFtsZ2 [2] = biological target: T2, OdinFtsZ2 (Candidatus Odinarchaeum yellowstonii, UniProt A0AAF0D3V8); assay: […] degree light scattering and TEM / cryo-EM of polymerization; type: biochemical; conditions: […] GTP, […] Mg2+, pH […] KCl, […] °C; nucleotide-dependent assembly
T2 construct: gene ftsZ; full length, synthetic gene, 6His-bdSUMO tag cleaved by Ulp protease, E. coli BL21(DE3); assembles into stacked rings
T2 sequence (A0AAF0D3V8 1-402): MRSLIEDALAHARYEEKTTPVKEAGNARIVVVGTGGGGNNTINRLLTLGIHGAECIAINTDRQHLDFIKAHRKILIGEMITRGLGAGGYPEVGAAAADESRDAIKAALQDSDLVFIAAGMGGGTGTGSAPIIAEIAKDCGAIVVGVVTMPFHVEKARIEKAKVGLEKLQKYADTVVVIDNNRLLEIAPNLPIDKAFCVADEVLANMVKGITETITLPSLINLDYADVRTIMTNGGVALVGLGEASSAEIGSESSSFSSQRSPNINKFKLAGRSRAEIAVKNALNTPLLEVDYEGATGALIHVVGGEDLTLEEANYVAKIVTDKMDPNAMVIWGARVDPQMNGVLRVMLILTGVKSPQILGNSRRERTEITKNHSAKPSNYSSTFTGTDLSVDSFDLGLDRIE

OdinFtsZ1 [3] = biological target: T1, OdinFtsZ1; assay: light scattering and sedimentation assay of polymerization; type: biochemical; conditions: […] GTP, […] Mg2+, pH […] KCl, […] °C
OdinFtsZ2 [4] = biological target: T2, OdinFtsZ2; assay: negative-stain TEM of polymerization; type: biochemical; conditions: […] nucleotide, […] MgCl2, pH […] KCl, […] °C
[5] = biological target: OdinSepF (Candidatus Odinarchaeum yellowstonii LCB_4); assay: SEC-MALS; Superdex 75 Increase 10/300 GL, HK50 buffer (50 mM HEPES pH 7.4, 50 mM KCl), room temperature, OdinSepF 2 mg/ml, 100 μl

Compound: Nc1nc2c(ncn2[C@@H]2O[C@H](COP(=O)(O)CP(=O)(O)OP(=O)(O)O)[C@@H](O)[C@H]2O)c(=O)[nH]1 [GMPCPP]
- cryo-EM structure of filament (OdinFtsZ1 [1]): A non-protein density was detected within the nucleotide-binding pocket using Servalcat

Compound: Nc1nc2c(ncn2[C@@H]2O[C@H](COP(=O)(O)OP(=O)(O)OP(=O)(O)O)[C@@H](O)[C@H]2O)c(=O)[nH]1 [GTP]
- 90 degree light scattering and TEM / cryo-EM of polymerization (OdinFtsZ2 [2]): OdinFtsZ2 formed highly curved, stacked ring-like structures when provided with GTP or GTPγS
- light scattering and sedimentation assay of polymerization (OdinFtsZ1 [3]): GTP addition significantly enhanced the amount of OdinFtsZ1 in the pellet fraction

Compound: Nc1nc2c(ncn2[C@@H]2O[C@H](COP(=O)(O)OP(=O)(O)OP(O)(O)=S)[C@@H](O)[C@H]2O)c(=O)[nH]1 [GTPγS]
- negative-stain TEM of polymerization (OdinFtsZ2 [4]): OdinFtsZ2 formed highly curved, stacked ring-like structures when provided with GTP or GTPγS

- stoichiometry N [5]: 2
Compound: OdinSepF (natural protein)
